# PubChem BioAssay AID1963838 (Molecular Pharmacology Branch, DTP, NCI, 2024)
# System: 855422-203-R-J1-PDC complex spheroid viability
# Experiment: Anticancer human tumor 855422-203-R-J1-PDC patient-derived bladder carcinoma cell line growth inhibition [POLQ]
# Settings: for IC50: curve of first compound; for viability, T/C: stronger effect = lower value
# Procedure, shortened: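 Patient-derived tumour cells were co-cultured with HUVEC and mesenchymal stem cells as multicellular spheroids at 37 °C. They were treated with POLQ inhibitors (novobiocin, ART-558, RP6685) alone or combined with other agents. Top concentrations were at or near clinical Cmax (otherwise 10 microM; SN-38 at 1 microM), decreasing in half-log steps.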
# 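Further: spheroids exposed to compounds for seven days before readout.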
smiles,measurement,setting,value
CC1COCCN1c1cc(C2(O)CC3CCC(C2)O3)c2cnn(-c3ccn[nH]3)c2n1 (centres undefined) + COC1C(OC(N)=O)C(O)C(Oc2ccc3c(O)c(NC(=O)c4ccc(O)c(CC=C(C)C)c4)c(=O)oc3c2C)OC1(C)C,IC50,second compound 0.0316 µM,113 nM
same,IC50,second compound 0.1 µM,84.4 nM
same,IC50,second compound 0.316 µM,106 nM
same,IC50,second compound 1 µM,107 nM
same,IC50,second compound 3.16 µM,96.7 nM
same,IC50,second compound 10 µM,87.8 nM
same,"viability, T/C","second compound 0.0316 µM, first compound 0.0316 µM",94.3%
same,"viability, T/C","second compound 0.0316 µM, first compound 0.1 µM",54.2%
same,"viability, T/C","second compound 0.0316 µM, first compound 0.316 µM",14.5%
same,"viability, T/C","second compound 0.0316 µM, first compound 1 µM",8.78%
same,"viability, T/C","second compound 0.0316 µM, first compound 3.16 µM",6.63%
same,"viability, T/C","second compound 0.0316 µM, first compound 10 µM",3.87%
same,"viability, T/C","second compound 0.1 µM, first compound 0.0316 µM",84.8%
same,"viability, T/C","second compound 0.1 µM, first compound 0.1 µM",44.1%
same,"viability, T/C","second compound 0.1 µM, first compound 0.316 µM",13.4%
same,"viability, T/C","second compound 0.1 µM, first compound 1 µM",9.17%
same,"viability, T/C","second compound 0.1 µM, first compound 3.16 µM",6.55%
same,"viability, T/C","second compound 0.1 µM, first compound 10 µM",4.3%
same,"viability, T/C","second compound 0.316 µM, first compound 0.0316 µM",99.6%
same,"viability, T/C","second compound 0.316 µM, first compound 0.1 µM",52%
same,"viability, T/C","second compound 0.316 µM, first compound 0.316 µM",18.9%
same,"viability, T/C","second compound 0.316 µM, first compound 1 µM",10.2%
same,"viability, T/C","second compound 0.316 µM, first compound 3.16 µM",8.4%
same,"viability, T/C","second compound 0.316 µM, first compound 10 µM",3.49%
same,"viability, T/C","second compound 1 µM, first compound 0.0316 µM",109%
same,"viability, T/C","second compound 1 µM, first compound 0.1 µM",52.2%
same,"viability, T/C","second compound 1 µM, first compound 0.316 µM",12.7%
same,"viability, T/C","second compound 1 µM, first compound 1 µM",8.94%
same,"viability, T/C","second compound 1 µM, first compound 3.16 µM",7.59%
same,"viability, T/C","second compound 1 µM, first compound 10 µM",4.06%
same,"viability, T/C","second compound 3.16 µM, first compound 0.0316 µM",112%
same,"viability, T/C","second compound 3.16 µM, first compound 0.1 µM",48.2%
same,"viability, T/C","second compound 3.16 µM, first compound 0.316 µM",14.7%
same,"viability, T/C","second compound 3.16 µM, first compound 1 µM",8.35%
same,"viability, T/C","second compound 3.16 µM, first compound 3.16 µM",7.58%
same,"viability, T/C","second compound 3.16 µM, first compound 10 µM",3.81%
same,"viability, T/C","second compound 10 µM, first compound 0.0316 µM",112%
same,"viability, T/C","second compound 10 µM, first compound 0.1 µM",42%
same,"viability, T/C","second compound 10 µM, first compound 0.316 µM",15.8%
same,"viability, T/C","second compound 10 µM, first compound 1 µM",8.17%
same,"viability, T/C","second compound 10 µM, first compound 3.16 µM",7.6%
same,"viability, T/C","second compound 10 µM, first compound 10 µM",4.01%
CC(=O)O[C@H]1C(=O)[C@@]2(C)[C@H]([C@H](OC(=O)c3ccccc3)[C@]3(O)C[C@H](OC(=O)[C@H](O)[C@@H](NC(=O)c4ccccc4)c4ccccc4)C(C)=C1C3(C)C)[C@]1(OC(C)=O)CO[C@@H]1C[C@@H]2O + Cc1cccc(N(C)C(=O)C2C(O)CCN2c2nc(C)cc(C(F)(F)F)c2C#N)c1,IC50,second compound 0.0316 µM,< 9.49 nM
same,IC50,second compound 0.1 µM,< 9.49 nM
same,IC50,second compound 0.316 µM,< 9.49 nM
same,IC50,second compound 1 µM,< 9.49 nM
same,IC50,second compound 3.16 µM,< 9.49 nM
same,IC50,second compound 10 µM,< 9.49 nM
same,"viability, T/C","second compound 0.0316 µM, first compound 0.00949 µM",13.6%
same,"viability, T/C","second compound 0.0316 µM, first compound 0.03 µM",9.26%
same,"viability, T/C","second compound 0.0316 µM, first compound 0.0949 µM",11.7%
same,"viability, T/C","second compound 0.0316 µM, first compound 0.3 µM",9.48%
same,"viability, T/C","second compound 0.0316 µM, first compound 0.949 µM",11.1%
same,"viability, T/C","second compound 0.0316 µM, first compound 3 µM",12.6%
same,"viability, T/C","second compound 0.1 µM, first compound 0.00949 µM",16.4%
same,"viability, T/C","second compound 0.1 µM, first compound 0.03 µM",10.2%
same,"viability, T/C","second compound 0.1 µM, first compound 0.0949 µM",9.03%
same,"viability, T/C","second compound 0.1 µM, first compound 0.3 µM",7.34%
same,"viability, T/C","second compound 0.1 µM, first compound 0.949 µM",9.39%
same,"viability, T/C","second compound 0.1 µM, first compound 3 µM",8.97%
same,"viability, T/C","second compound 0.316 µM, first compound 0.00949 µM",11.8%
same,"viability, T/C","second compound 0.316 µM, first compound 0.03 µM",10.8%
same,"viability, T/C","second compound 0.316 µM, first compound 0.0949 µM",8.92%
same,"viability, T/C","second compound 0.316 µM, first compound 0.3 µM",9.41%
same,"viability, T/C","second compound 0.316 µM, first compound 0.949 µM",10.9%
same,"viability, T/C","second compound 0.316 µM, first compound 3 µM",9.92%
same,"viability, T/C","second compound 1 µM, first compound 0.00949 µM",9.84%
same,"viability, T/C","second compound 1 µM, first compound 0.03 µM",12%
same,"viability, T/C","second compound 1 µM, first compound 0.0949 µM",9.05%
same,"viability, T/C","second compound 1 µM, first compound 0.3 µM",9.65%
same,"viability, T/C","second compound 1 µM, first compound 0.949 µM",10.3%
same,"viability, T/C","second compound 1 µM, first compound 3 µM",10.7%
same,"viability, T/C","second compound 3.16 µM, first compound 0.00949 µM",11.4%
same,"viability, T/C","second compound 3.16 µM, first compound 0.03 µM",11.7%
same,"viability, T/C","second compound 3.16 µM, first compound 0.0949 µM",10.1%
same,"viability, T/C","second compound 3.16 µM, first compound 0.3 µM",10.2%
same,"viability, T/C","second compound 3.16 µM, first compound 0.949 µM",11.5%
same,"viability, T/C","second compound 3.16 µM, first compound 3 µM",10.8%
same,"viability, T/C","second compound 10 µM, first compound 0.00949 µM",13.1%
same,"viability, T/C","second compound 10 µM, first compound 0.03 µM",11.8%
same,"viability, T/C","second compound 10 µM, first compound 0.0949 µM",12.8%
same,"viability, T/C","second compound 10 µM, first compound 0.3 µM",10.9%
same,"viability, T/C","second compound 10 µM, first compound 0.949 µM",12%
same,"viability, T/C","second compound 10 µM, first compound 3 µM",11.9%
